Format in all cases: cell-based
One test deals with T1, IGF-1 Receptor (Homo sapiens, UniProt P08069).
T1 construct: expressed in transfected cells; host or cells: 3T3 cells (3T3/IGF-1R)
Description: Cellular IGF-1 Receptor ELISA (3T3/IGF-1R cells). Conditions: 20 nM IGF-1, serum-free, 2 h drug incubation.

The target of another test is T2, EGFR (Homo sapiens, UniProt P00533).
T2 construct: expressed in transfected cells; host or cells: NIH3T3 clone C7 (EGFR/C7)
Description: EGFR Whole Cell Kinase Assay (EGFR-3T3 assay, ELISA). Conditions: NIH3T3 clone C7 over-expressing human EGF receptor; 25 nM EGF. From the text: (§1) The following examples illustrates the ability of the exemplary compounds to inhibit receptor tyrosine kinases, such as HER2 and/or EGFR. The following target cells were used for cellular kinase assays: NIH3T3 clone C7 (Honegger et al., supra) engineered to over-express human EGF receptor; NIH3T3 cells engineered to over-express a chimeric receptor containing the EGFR extracellular domain and the HER2 intracellular kinase domain; the human mammary carcinoma line BT474 (ATCC ATB2) expressing HER2; and the human glioblastoma line U1242 that expresses PDGFR-beta. Growth assays were carried out using human mammary epithelial SKBR3 (ATCC HTB30) cells (SKBR3 cells over-express HER2), SKOV3 (ATCC HTB77) human ovarian cancer cell line (SKOV3 cells also over-express HER2), A431 cells (A431 cells over-express EGFR) MCF7 human breast carcinoma cells, MCF7 cells overexpressing the HER2 kinase (MCF7-HER2), NIH3T3 cells, and NIH3T3 cells overexpressing the HER2 kinase (3T3-HER2.
EGFR Whole Cell Kinase Assay
EGFR kinase activity (EGFR-3T3 assay) in whole cells was measured as described below:
A. Coat ELISA plates (Corning, 96 well, Cat. #25805-96) with 05-101 antibody at 0.5 μg per well in PBS, 150 μl final volume/well, and store overnight at 4° C. Coated plates are good for up to 10 days when stored at 4° C. […]

Another test concerns the target T3, PDGFR-beta (Homo sapiens, UniProt P09619).
T3 construct: the human glioblastoma line U1242 that expresses PDGFR-beta; endogenous in cells; host or cells: U1242 (U1242 MG) human glioblastoma cells
Description: PDGF-R Cellular Assay (ELISA). Conditions: human glioblastoma line U1242; PDGF-BB 100 ng/ml.
Source text: as §1, with “(3T3-HER2. […]” for “(3T3-HER2.”
(In general: An ELISA detects its analyte on a solid surface through an enzyme-linked reagent.)

The target of another test is T4, HER2 (Homo sapiens, UniProt P04626).
T4 construct: a human breast tumor cell line which expresses high levels of HER2 kinase; endogenous in cells; host or cells: BT-474 human breast tumor cells
Description: HER2-ELISA, whole cell HER2 activity in BT474 cells. Conditions: BT474 human breast tumor cells; serum-free; 2 h drug preincubation.
Source text: as §1
HER2-BT474 assays measuring whole cell HER2 activity was carried out as described below:
1) The cell line used in this assay is BT-474 (ATCC HBT20), a human breast tumor cell line which expresses high levels of HER2 kinase.
2) BT-474 is grown in an incubator with 5% CO2 at 37° C. The growth media is RPMI+10% FBS+GMS-G (Gibco supplement)+Glutamine.
3) A monoclonal anti-HER2 antibody is used in ELISA. […]

Test [1] relates to chimeric receptor containing the EGFR extracellular domain and the HER2 intracellular kinase domain. Briefly: EGFR-HER2 chimeric receptor whole cell kinase assay in NIH3T3 cells (ELISA). Conditions: NIH3T3 cells with EGFR/HER2 chimeric receptor; 100 nM EGF; 2 h drug incubation; read-out: ELISA DATA HER2 - (3T3).
Source text: as §1
EGFR-HER2 Chimeric Recetor
HER2 kinase activity (EGFR-3T3) in whole cells was measured as described below:
The materials and reagents are identical to these used in example 1, the EGFR whole cell kinase assay.
A. Coat ELISA plates (Corning, 96 well, Cat. #25805-96) with 05-101 antibody at 0.5 µg per well in PBS, 100 μl final volume/well, and store overnight at 4° C. […]

Data on one compound can be found in US6103728A, “Quinazolines” (Sugen, Inc., priority 1997, dated 2000).

T2 sequence (P00533 25-1210): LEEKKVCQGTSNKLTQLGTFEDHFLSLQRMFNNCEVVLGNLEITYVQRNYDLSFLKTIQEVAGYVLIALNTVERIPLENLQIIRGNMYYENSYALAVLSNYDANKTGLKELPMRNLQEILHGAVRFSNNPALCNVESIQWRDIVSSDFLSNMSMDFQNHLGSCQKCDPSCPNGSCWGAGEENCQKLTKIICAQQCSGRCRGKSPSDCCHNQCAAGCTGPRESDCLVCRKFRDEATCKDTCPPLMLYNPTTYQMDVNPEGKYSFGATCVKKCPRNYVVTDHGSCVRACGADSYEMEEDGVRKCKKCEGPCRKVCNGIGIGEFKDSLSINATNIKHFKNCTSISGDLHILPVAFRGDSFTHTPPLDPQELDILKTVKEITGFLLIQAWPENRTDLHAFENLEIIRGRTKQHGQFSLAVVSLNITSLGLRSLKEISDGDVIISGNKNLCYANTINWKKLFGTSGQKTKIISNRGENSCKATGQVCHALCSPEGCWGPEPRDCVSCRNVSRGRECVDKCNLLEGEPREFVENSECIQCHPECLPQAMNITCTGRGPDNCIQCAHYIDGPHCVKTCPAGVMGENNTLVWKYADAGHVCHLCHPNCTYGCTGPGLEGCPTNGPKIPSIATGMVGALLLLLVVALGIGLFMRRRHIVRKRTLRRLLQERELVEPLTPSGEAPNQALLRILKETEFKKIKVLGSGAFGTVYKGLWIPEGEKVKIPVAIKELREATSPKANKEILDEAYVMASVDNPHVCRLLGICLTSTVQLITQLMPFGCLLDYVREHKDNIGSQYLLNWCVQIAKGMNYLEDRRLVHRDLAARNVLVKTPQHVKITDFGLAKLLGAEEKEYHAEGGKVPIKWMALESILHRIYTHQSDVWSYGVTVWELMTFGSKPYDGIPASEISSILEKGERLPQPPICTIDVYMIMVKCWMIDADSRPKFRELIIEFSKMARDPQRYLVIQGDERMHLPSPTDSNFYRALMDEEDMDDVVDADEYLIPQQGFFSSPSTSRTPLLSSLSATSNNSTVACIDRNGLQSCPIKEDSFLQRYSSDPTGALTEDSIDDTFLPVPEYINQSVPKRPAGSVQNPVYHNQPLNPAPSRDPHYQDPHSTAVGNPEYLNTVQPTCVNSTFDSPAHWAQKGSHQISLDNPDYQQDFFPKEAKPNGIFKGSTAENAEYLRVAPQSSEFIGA
T4 sequence (P04626 23-1255): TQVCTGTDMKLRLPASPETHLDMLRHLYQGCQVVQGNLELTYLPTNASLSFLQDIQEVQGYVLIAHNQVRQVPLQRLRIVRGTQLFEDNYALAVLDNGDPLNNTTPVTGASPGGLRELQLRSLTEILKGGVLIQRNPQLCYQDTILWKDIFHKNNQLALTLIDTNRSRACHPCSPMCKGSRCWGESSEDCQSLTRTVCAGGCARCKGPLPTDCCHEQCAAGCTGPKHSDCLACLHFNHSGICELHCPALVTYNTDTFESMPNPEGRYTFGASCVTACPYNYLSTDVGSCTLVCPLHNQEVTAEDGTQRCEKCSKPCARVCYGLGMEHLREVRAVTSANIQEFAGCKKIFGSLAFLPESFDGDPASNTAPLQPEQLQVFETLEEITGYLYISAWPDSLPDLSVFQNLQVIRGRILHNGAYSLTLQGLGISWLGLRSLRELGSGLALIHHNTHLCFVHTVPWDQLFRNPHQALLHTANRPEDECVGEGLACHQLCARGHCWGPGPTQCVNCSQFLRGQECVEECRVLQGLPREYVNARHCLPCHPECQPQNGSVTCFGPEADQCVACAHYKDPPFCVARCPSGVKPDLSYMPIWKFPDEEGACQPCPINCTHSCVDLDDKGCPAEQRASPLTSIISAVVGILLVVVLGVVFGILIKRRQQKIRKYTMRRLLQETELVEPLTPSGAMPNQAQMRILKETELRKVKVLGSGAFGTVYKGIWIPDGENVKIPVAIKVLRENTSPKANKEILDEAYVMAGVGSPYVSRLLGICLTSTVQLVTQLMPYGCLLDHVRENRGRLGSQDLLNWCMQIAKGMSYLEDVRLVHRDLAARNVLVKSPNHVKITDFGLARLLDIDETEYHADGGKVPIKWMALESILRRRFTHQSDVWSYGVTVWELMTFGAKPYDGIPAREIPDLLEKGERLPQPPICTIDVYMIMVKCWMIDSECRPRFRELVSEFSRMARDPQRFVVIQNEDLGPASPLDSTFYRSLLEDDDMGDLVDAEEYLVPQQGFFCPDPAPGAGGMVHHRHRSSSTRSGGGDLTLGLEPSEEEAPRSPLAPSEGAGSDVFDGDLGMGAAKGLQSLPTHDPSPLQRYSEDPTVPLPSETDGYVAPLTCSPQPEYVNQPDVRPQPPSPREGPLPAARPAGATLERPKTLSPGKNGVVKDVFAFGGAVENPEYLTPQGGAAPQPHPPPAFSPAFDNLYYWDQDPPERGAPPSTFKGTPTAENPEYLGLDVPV
T3 sequence (P09619 33-1106): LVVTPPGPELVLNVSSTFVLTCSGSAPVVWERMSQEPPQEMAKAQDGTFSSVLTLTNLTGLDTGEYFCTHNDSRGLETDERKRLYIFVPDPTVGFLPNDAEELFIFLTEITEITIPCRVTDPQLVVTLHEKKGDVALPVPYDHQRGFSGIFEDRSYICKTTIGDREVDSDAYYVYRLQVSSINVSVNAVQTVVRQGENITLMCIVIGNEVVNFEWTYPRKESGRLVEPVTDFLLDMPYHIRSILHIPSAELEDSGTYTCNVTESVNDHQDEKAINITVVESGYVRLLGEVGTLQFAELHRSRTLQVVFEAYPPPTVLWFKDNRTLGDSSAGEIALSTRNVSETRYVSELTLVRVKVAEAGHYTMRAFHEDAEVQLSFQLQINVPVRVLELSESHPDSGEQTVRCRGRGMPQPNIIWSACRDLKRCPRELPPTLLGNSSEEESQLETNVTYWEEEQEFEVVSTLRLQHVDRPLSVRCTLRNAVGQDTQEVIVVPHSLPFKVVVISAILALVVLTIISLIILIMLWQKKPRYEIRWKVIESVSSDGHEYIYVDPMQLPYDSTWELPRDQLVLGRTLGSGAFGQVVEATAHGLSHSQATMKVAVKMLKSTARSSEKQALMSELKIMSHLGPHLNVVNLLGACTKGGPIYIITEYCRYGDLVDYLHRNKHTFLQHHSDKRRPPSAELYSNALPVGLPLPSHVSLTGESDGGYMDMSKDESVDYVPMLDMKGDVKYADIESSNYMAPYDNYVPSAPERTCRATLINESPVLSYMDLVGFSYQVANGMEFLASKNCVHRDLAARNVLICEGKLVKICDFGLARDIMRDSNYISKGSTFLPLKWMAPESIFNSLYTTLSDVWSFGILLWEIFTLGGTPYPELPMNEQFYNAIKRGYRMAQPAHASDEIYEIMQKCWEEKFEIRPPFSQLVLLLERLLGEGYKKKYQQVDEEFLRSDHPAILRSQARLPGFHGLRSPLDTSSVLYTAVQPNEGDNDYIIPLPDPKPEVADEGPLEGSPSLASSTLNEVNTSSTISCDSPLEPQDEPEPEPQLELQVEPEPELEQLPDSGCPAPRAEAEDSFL
T1 sequence (P08069 31-1367): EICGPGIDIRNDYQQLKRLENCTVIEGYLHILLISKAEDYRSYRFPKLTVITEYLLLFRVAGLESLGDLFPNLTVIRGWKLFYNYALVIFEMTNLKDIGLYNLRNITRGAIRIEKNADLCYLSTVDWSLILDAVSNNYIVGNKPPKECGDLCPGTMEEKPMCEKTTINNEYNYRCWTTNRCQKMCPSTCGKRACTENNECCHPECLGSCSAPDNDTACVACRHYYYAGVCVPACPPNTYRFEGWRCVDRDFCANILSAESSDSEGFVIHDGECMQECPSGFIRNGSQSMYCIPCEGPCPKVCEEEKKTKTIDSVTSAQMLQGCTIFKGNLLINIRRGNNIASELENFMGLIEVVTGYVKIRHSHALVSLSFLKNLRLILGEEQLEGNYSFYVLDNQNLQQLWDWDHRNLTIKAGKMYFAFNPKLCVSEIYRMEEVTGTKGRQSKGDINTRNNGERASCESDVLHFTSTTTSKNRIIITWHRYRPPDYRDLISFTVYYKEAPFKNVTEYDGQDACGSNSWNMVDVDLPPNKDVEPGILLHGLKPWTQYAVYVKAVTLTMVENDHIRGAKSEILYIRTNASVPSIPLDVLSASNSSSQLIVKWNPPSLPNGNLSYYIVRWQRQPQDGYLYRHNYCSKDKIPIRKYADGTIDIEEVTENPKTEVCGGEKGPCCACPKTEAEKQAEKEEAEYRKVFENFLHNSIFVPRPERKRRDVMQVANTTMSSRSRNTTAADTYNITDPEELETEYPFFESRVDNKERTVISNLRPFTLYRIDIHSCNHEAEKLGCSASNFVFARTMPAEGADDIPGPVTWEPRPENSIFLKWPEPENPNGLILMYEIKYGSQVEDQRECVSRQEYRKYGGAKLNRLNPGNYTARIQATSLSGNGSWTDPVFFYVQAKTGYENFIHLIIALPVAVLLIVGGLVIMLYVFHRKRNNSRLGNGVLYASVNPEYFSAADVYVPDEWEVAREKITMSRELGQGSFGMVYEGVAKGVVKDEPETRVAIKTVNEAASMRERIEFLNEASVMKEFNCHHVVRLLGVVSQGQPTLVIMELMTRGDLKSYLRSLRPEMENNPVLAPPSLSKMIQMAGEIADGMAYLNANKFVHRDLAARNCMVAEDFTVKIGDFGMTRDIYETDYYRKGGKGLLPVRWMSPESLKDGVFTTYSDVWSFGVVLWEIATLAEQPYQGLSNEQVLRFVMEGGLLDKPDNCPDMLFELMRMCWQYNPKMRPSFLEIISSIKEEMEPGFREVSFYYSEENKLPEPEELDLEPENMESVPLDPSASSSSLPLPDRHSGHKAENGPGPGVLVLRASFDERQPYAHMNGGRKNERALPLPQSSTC

As to `COC(=O)C(c1cccc(Br)c1)c1ncnc2cc(OC)c(OC)cc12` (centres unmarked) [Compound D002], the IC50 is > 50 µM against IGF-1 Receptor; > 100 µM against EGFR; > 100 µM against PDGFR-beta; > 100 µM on HER2; > 50 µM in test [1].
